Reference: ChEMBL document CHEMBL1201862, “PubChem BioAssay data set” (2004)
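96-well plates; 48 h exposure; 5 concentrations. Endpoints by linear interpolation between flanking doses. Not reached: highest tested concentration assigned. GI50 = concentration required for 50% inhibition of growth.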 Activity calls are given as the source filed them. Rule as the data show it: active = GI50 up to about 1.1 µM and inactive = higher.

Columns and labels:
Experiment in all cases: DTP human tumour cell line panel, 48 h
786-0 = system: 786-0
A498 = system: A498
A549 = system: A549
ACHN = system: ACHN
BT-549 = system: BT-549
CAKI-1 = system: CAKI-1
COLO 205 = system: COLO 205
DU-145 = system: DU-145
EKVX = system: EKVX
HCC 2998 = system: HCC 2998
HCT-116 = system: HCT-116
HCT-15 = system: HCT-15
HL-60 = system: HL-60
HOP-62 = system: HOP-62
HOP-92 = system: HOP-92
HT-29 = system: HT-29
Hs-578T = system: Hs-578T
IGROV-1 = system: IGROV-1
K562 = system: K562
KM12 = system: KM12
LOX IMVI = system: LOX IMVI
M14 = system: M14
MCF7 = system: MCF7
MDA-MB-231 = system: MDA-MB-231
MDA-MB-435 = system: MDA-MB-435
MDA-N = system: MDA-N
MOLT-4 = system: MOLT-4
Malme-3M = system: Malme-3M
NCI-H226 = system: NCI-H226
NCI-H23 = system: NCI-H23
NCI-H460 = system: NCI-H460
NCI-H522 = system: NCI-H522
NCI/ADR-RES = system: NCI/ADR-RES
OVCAR-3 = system: OVCAR-3
OVCAR-4 = system: OVCAR-4
PC-3 = system: PC-3
RPMI-8226 = system: RPMI-8226
RXF 393 = system: RXF 393
SF-268 = system: SF-268
SF-295 = system: SF-295
SF-539 = system: SF-539
SK-MEL-28 = system: SK-MEL-28
SK-MEL-2 = system: SK-MEL-2
SK-MEL-5 = system: SK-MEL-5
SK-OV-3 = system: SK-OV-3
SN12C = system: SN12C
SNB-19 = system: SNB-19
SR = system: SR
SW-620 = system: SW-620
T47D = system: T47D
TK-10 = system: TK-10
U-251 = system: U-251
UACC-257 = system: UACC-257
UACC-62 = system: UACC-62
UO-31 = system: UO-31
CCRF-CEM = system: CCRF-CEM
OVCAR-5 = system: OVCAR-5
OVCAR-8 = system: OVCAR-8

C/C(=C1\C(=O)C(c2ccccc2)N(c2ccccc2)C1=O)c1ccc(Cl)cc1 (stereo unspecified)
GI50 (786-0): 18.3 µM (inactive) | GI50 (A498): 16.7 µM (inactive) | GI50 (A549): 18.2 µM (inactive) | GI50 (ACHN): 19.3 µM (inactive) | GI50 (BT-549): 19.8 µM (inactive) | GI50 (CAKI-1): 24.4 µM (inactive) | GI50 (COLO 205): 16.8 µM (inactive) | GI50 (DU-145): 18.7 µM (inactive) | GI50 (EKVX): 30.8 µM (inactive) | GI50 (HCC 2998): 36.6 µM (inactive) | GI50 (HCT-116): 16.4 µM (inactive) | GI50 (HCT-15): 19.1 µM | GI50 (HL-60): 28.6 µM (inactive) | GI50 (HOP-62): 23.1 µM (inactive) | GI50 (HOP-92): 3.17 µM (inactive) | GI50 (HT-29): 17.4 µM (inactive) | GI50 (Hs-578T): 18.7 µM (inactive) | GI50 (IGROV-1): 18.7 µM (inactive) | GI50 (K562): 30.1 µM (inactive) | GI50 (KM12): 22.2 µM (inactive) | GI50 (LOX IMVI): 14.9 µM (inactive) | GI50 (M14): 19.8 µM (inactive) | GI50 (MCF7): 35.1 µM (inactive) | GI50 (MDA-MB-231): 22.3 µM (inactive) | GI50 (MDA-MB-435): 17.4 µM (inactive) | GI50 (MDA-N): 19.7 µM (inactive) | GI50 (MOLT-4): 31.6 µM (inactive) | GI50 (Malme-3M): 19.7 µM (inactive) | GI50 (NCI-H226): 18.4 µM (inactive) | GI50 (NCI-H23): 17.1 µM (inactive) | GI50 (NCI-H460): 29.6 µM (inactive) | GI50 (NCI-H522): 18.2 µM (inactive) | GI50 (NCI/ADR-RES): 29.1 µM (inactive) | GI50 (OVCAR-3): 15.6 µM (inactive) | GI50 (OVCAR-4): 21.5 µM (inactive) | GI50 (PC-3): 14.3 µM (inactive) | GI50 (RPMI-8226): 15.4 µM (inactive) | GI50 (RXF 393): 24 µM (inactive) | GI50 (SF-268): 18.7 µM (inactive) | GI50 (SF-295): 20 µM (inactive) | GI50 (SF-539): 21.3 µM (inactive) | GI50 (SK-MEL-28): 16.3 µM (inactive) | GI50 (SK-MEL-2): 20.1 µM (inactive) | GI50 (SK-MEL-5): 14.5 µM (inactive) | GI50 (SK-OV-3): 16.7 µM (inactive) | GI50 (SN12C): 30.7 µM (inactive) | GI50 (SNB-19): 17.4 µM (inactive) | GI50 (SR): 20.6 µM (inactive) | GI50 (SW-620): 22.8 µM (inactive) | GI50 (T47D): 19.4 µM (inactive) | GI50 (TK-10): 22 µM (inactive) | GI50 (U-251): 15.9 µM (inactive) | GI50 (UACC-257): 16.9 µM (inactive) | GI50 (UACC-62): 16.3 µM (inactive) | GI50 (UO-31): 19.8 µM (inactive)

CO/C=C(/C(=O)OC)[C@@H]1C[C@@H]1c1ccc2ccccc2c1
GI50 (786-0): 33.5 µM (inactive) | GI50 (A498): 39.3 µM (inactive) | GI50 (A549): 18.7 µM (inactive) | GI50 (ACHN): 25.9 µM (inactive) | GI50 (BT-549): 21.8 µM (inactive) | GI50 (CAKI-1): 21.6 µM (inactive) | GI50 (CCRF-CEM): 27.6 µM (inactive) | GI50 (COLO 205): 18.3 µM (inactive) | GI50 (DU-145): 38.9 µM (inactive) | GI50 (EKVX): 19.2 µM (inactive) | GI50 (HCC 2998): 20.4 µM (inactive) | GI50 (HCT-116): 18.1 µM (inactive) | GI50 (HCT-15): 18.8 µM | GI50 (HL-60): 18.3 µM (inactive) | GI50 (HOP-62): 45.4 µM (inactive) | GI50 (HOP-92): 19.8 µM (inactive) | GI50 (HT-29): 19.1 µM (inactive) | GI50 (Hs-578T): 31.8 µM (inactive) | GI50 (IGROV-1): 20.5 µM (inactive) | GI50 (K562): 23 µM (inactive) | GI50 (KM12): 21.7 µM (inactive) | GI50 (M14): 22.8 µM (inactive) | GI50 (MCF7): 30.3 µM (inactive) | GI50 (MDA-MB-231): 26.3 µM (inactive) | GI50 (MDA-MB-435): 14.7 µM (inactive) | GI50 (MDA-N): 20.4 µM (inactive) | GI50 (MOLT-4): 16.4 µM (inactive) | GI50 (Malme-3M): 20.2 µM (inactive) | GI50 (NCI-H226): 29.2 µM (inactive) | GI50 (NCI-H23): 28.2 µM (inactive) | GI50 (NCI-H460): 27.2 µM (inactive) | GI50 (NCI-H522): 12 µM (inactive) | GI50 (NCI/ADR-RES): 26.4 µM (inactive) | GI50 (OVCAR-3): 24.6 µM (inactive) | GI50 (OVCAR-4): 16.9 µM (inactive) | GI50 (OVCAR-5): 97.5 µM (inactive) | GI50 (OVCAR-8): 34 µM (inactive) | GI50 (PC-3): 27.7 µM (inactive) | GI50 (RPMI-8226): 20.3 µM (inactive) | GI50 (RXF 393): 44.1 µM (inactive) | GI50 (SF-268): 24.9 µM (inactive) | GI50 (SF-295): 37.2 µM (inactive) | GI50 (SF-539): 19.5 µM (inactive) | GI50 (SK-MEL-28): 23.4 µM (inactive) | GI50 (SK-MEL-2): 15.2 µM (inactive) | GI50 (SK-MEL-5): 16.4 µM (inactive) | GI50 (SK-OV-3): 22.2 µM (inactive) | GI50 (SN12C): 32.7 µM (inactive) | GI50 (SNB-19): 56.5 µM (inactive) | GI50 (SR): 13.2 µM (inactive) | GI50 (T47D): 20.9 µM (inactive) | GI50 (TK-10): 37.5 µM (inactive) | GI50 (U-251): 27.4 µM (inactive) | GI50 (UACC-257): 26 µM (inactive) | GI50 (UACC-62): 32.5 µM (inactive) | GI50 (UO-31): 30.3 µM (inactive)
